One data set has as its system PTEN mRNA. In words: Quantitative RT-PCR analysis of PTEN mRNA splicing in mouse tissues. Particulars: for PTEN mRNA in liver, quantitative RT-PCR: i.p. 3x/wk, 7 at 25 mg/kg, 1 at 40 mg/kg, PNAs 10 or 40 mg/kg. The format is in vivo, Balb/c mice.
Another data set deals with PTEN. The conditions noted are these: mice, determined in a previous study, cited from earlier work.
The next data set has as its system PTEN protein. The data set is described as follows: Western blot analysis of PTEN protein in mouse tissues. The conditions noted are these: 7 at 25 mg/kg, i.p. 3x/wk, 2 wks. The format is in vivo, Balb/c mice. Background: A western blot detects proteins with antibodies after separation by electrophoresis.
Data set [1] relates to CD40 cell surface protein expression. The conditions noted are these: read-out: IC50, CD40 cell surface protein expression; flow cytometry, FITC labeled antiCD40 antibody; cited from earlier work. On the technique in general: A flow cytometer gives signals particle by particle.
Another data set concerns PTEN RNA. In words: Quantitative RT-PCR of PTEN RNA splicing in BCL1 cells. The format is cell-based, murine. Particulars: data not shown.
[2] abbreviates: amphipathic peptide study, dosing as in Table 6.

This is an account of results in paper PMC3072269 (Journal of medicinal chemistry, 2010).

“Also recorded” adds a separate entry of the source. Where two headings read alike, the source gives them in different places.

As to “1: uniform 2′-O-MOE phosphorothioate 20-mer CTCAGCACATCTACAAGAAA, PTEN intron 3:exon 4 (all 2'-MOE, all phosphorothioate, methylation of C not given here) [Compound 1, reference compound]”, the “PTEN mRNA in liver, quantitative RT-PCR” value in the data set on PTEN mRNA (2 wks) was “modest downregulation of full length transcript with upregulation of the alternatively spliced product”.

For “7: antiPTEN phosphorothioate oligonucleotide with 2′-O-MOE wings and a 2′-deoxyribonucleotide gap, CTGCTAGCCTCTGGATTTGA, exon 9 [Compound 7]”, the EC50 in the data set with PTEN (read-out: Adipose EC50) was 0.7 to 1.4 µM; with PTEN (read-out: Liver EC50), 14 µM. In the data set with PTEN protein (9 at high dose (40 mg/kg)), the “PTEN protein in adipose tissue, western blot” value was “significant and comparable downregulation of PTEN protein”. For the same substance, in the data set on PTEN protein (PNAs 10 or 40 mg/kg), the “PTEN protein expression in liver, western blot” value is recorded as “significant inhibition of PTEN protein expression”. The “PTEN mRNA in liver, quantitative RT-PCR” value with PTEN mRNA (2 wks) is reported as “downregulation of total PTEN message (both isoforms)”.

Consider “(Lys)2-TKCTCAGCACATCTACA-Lys [Compound 10]”, for which the “PTEN mRNA splicing in white adipose tissue, quantitative RT-PCR” value in the data set on PTEN mRNA (10 or 40 mg/kg i.p., 3x/wk, 2 wks) is “marginal with the alternatively spliced isoform being upregulated but the full length transcript being unaltered; also recorded: inactive at both doses”.

As to CACAGATGACATTAG-Lys [Compound 8], in data set [1], the IC50 is 0.9 µM.

On to CTCAGCACATCTACA-Lys [Compound 3], for which, in the data set on PTEN RNA, the “alteration of splicing of PTEN RNA” value was “full length transcript was reduced and the alternatively spliced product was enhanced”.

“D-(KKLLKAALKLAKKG)-TKCTCAGCACATCTACA-Lys [Compound 14]”: in the data set “Tolerability in mice” (8.25 mg/kg i.p., 3x/wk, 2 wks), the “histopathological examination of the kidneys, low dose group” value is “nephrotoxicity with proximal tubule necrosis and regeneration”. Besides, in “Tolerability in mice” (33 mg/kg i.p.), the “liver morphology, high dose group” value was “appeared normal” and the “spleen size, high dose group” value is “drastically reduced spleen sizes”. For the same substance, the “histopathological examination of the kidneys, high dose group” value in the data set “Tolerability in mice” (33 mg/kg i.p., single administration) was “profound proximal tubule necrosis and proteinacous accumulation in Henle’s loop and collecting tubules”. Besides, the “body weight, high dose group” value in the data set “Tolerability in mice” (33 mg/kg i.p., arm terminated prematurely) was “rapid weight loss after administration of the first dose, indicative of acute toxicity”. In the data set with PTEN mRNA (setting [2]), the “PTEN splicing activity in adipose tissue, quantitative RT-PCR” value is reported as “showed activity at the low dose” and the “PTEN splicing activity in kidney, quantitative RT-PCR” value is given as “comparable to the octa(L-lysine) conjugate 9, even when administered at an approximately 4.5-fold lower dose”.

In general, EC50 refers to the concentration that produces a half-maximal response. In general, IC50 refers to the concentration that gives 50% inhibition.
